Row | melting point [°C] | SMILES
1 | 197 to 200 | COc1cc(Nc2nccc(N3CCC(O)CC3)n2)ccc1-n1cnc(C)c1
2 | 155 to 158 | Cc1cn(-c2ccc(Nc3nc(C)cc(Cc4ccccc4)n3)cc2F)cn1
3 | 95 to 98 | Cc1cc(Cc2ccccc2)nc(Nc2ccc(-n3ccnc3CO)cc2)n1
4 | 183 to 185 | Cc1cc(Cc2ccccc2)nc(Nc2ccc(-n3cnc(C)n3)c(F)c2)n1
5 | 202 to 204 | COc1cc(Nc2nc(-c3ccc(Cl)cc3)cc(C(F)(F)F)n2)ccc1-n1cnc(C)c1
6 | 248 to 250 | COc1cc(Nc2nc(-c3ccc(-n4ccnc4)cc3)cc(C(F)(F)F)n2)ccc1-n1cnc(C)c1
7 | 252 to 254 | COc1cc(Nc2nc(-c3ccc(-n4cccn4)cc3)cc(C(F)(F)F)n2)ccc1-n1cnc(C)c1
8 | 195 to 197 | CCOC(=O)c1cnc(Nc2ccc(-n3cnc(C)c3)c(OC)c2)nc1-c1cccc(C#N)c1
9 | 84 to 86 | CCOC(=O)C(c1ccccc1)c1nc(Nc2ccc(-n3cnc(C)c3)c(OC)c2)ncc1-c1ccccc1 (centres unmarked)
10 | 232 to 234 | CCOC(=O)c1cnc(Nc2ccc(-n3cnc(C)c3)c(F)c2)nc1-c1ccc(Cl)cc1
11 | 202 to 204 | COc1cc(Nc2nccc(-c3ccc(Cl)cc3)n2)ccc1-n1cnc(C)c1
12 | 204 to 206 | COc1cc(Nc2nccc(-c3cccnc3)n2)ccc1-n1cnc(C)c1
13 | 248 to 250 | Cc1cn(-c2ccc(Nc3nc(-c4ccc(Cl)cc4)cc(C(F)(F)F)n3)cc2F)cn1
14 | 219 to 221 | CCOC(=O)c1cnc(Nc2ccc(-n3cnc(C)c3)c(F)c2)nc1-c1ccc(C(F)(F)F)cc1
15 | 196 to 197 | Cc1cn(-c2ccc(Nc3nccc(-c4ccc(C(F)(F)F)cc4)n3)cc2F)cn1
16 | 216 to 218 | CCOC(=O)c1cnc(Nc2ccc(-n3cnc(C)c3)c(OC)c2)nc1-c1ccc(Cl)cc1 [Example 28, Ethyl 4-(4-chloro-phenyl)-2-[3-methoxy-4-(4-methyl-imidazol-1-yl)-phenylamino]-pyrimidine-5-carboxylate]
17 | 138 to 141 | COc1cc(Nc2nc(C)cc(Cc3ccccc3)n2)ccc1-c1cnc(C)s1 [Example 209, (4-Benzyl-6-methyl-pyrimidin-2-yl)-[3-methoxy-4-(2-methyl-thiazol-5-yl)-phenyl]-amine]

Source: US20090215759A1, “MODULATORS FOR AMYLOID BETA” (priority 2008, published 2009)
